The values that follow come from ChEMBL document CHEMBL1201862, “PubChem BioAssay data set” (2004).

Among the test systems are EKVX; HCT-15; HOP-62; LOX IMVI; MOLT-4; Malme-3M; NCI-H522; NCI/ADR-RES; OVCAR-4; OVCAR-5; PC-3; RPMI-8226; SF-268; SF-295; SK-MEL-2; SNB-19; SNB-75; TK-10; A498; U-251.
Holding throughout (assay): inhibition of tumour cell growth, NCI panel, 48 h

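Assay format: 96-well plates, 48-hour exposure. GI50: concentration for 50% inhibition of growth.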 Calls of active or inactive are those of the source. Rule as the data show it: active = GI50 up to about 1.1 µM and inactive = higher. A value given as a limit tells only on which side of the number the result lay.

As for `O=C(c1ccccc1)N1CCC(Nc2nccs2)O1` (stereo unspecified), the GI50 was > 10 µM (inactive) in the test on EKVX; > 10 µM with HCT-15; > 10 µM (inactive) with HOP-62; > 10 µM (inactive) in the test on LOX IMVI; > 10 µM (inactive) with MOLT-4; > 10 µM (inactive) in the test on Malme-3M. Moreover, the GI50 with NCI-H522, in the test on NCI/ADR-RES, with OVCAR-4, in the test on OVCAR-5, in the test on PC-3 and in the test on RPMI-8226 was > 10 µM (inactive) each time. In addition, the GI50 in the test on SF-268, in the test with SF-295, in the test with SK-MEL-2, in the test with SNB-19, in the test on SNB-75 and in the test with TK-10 was > 10 µM (inactive) each time.
On to `O=C1c2ccc3c4ccc5c6c(ccc(c7ccc(c2c37)C(=O)N1CCN1CCCCC1)c64)C(=O)N(CCN1CCCCC1)C5=O`, for which the GI50 is > 100 µM (inactive) in the test with A498; > 100 µM (inactive) with EKVX; > 100 µM with HCT-15; > 100 µM (inactive) in the test with HOP-62; > 100 µM (inactive) with LOX IMVI; > 100 µM (inactive) with MOLT-4. The GI50 in the test with NCI/ADR-RES, with OVCAR-4, with OVCAR-5, in the test with PC-3, in the test with RPMI-8226 and in the test with SF-268 was > 100 µM (inactive) in each case. The GI50 with SF-295, in the test on SK-MEL-2, with SNB-19, in the test with TK-10 and in the test on U-251 was > 100 µM (inactive) in each case.
With `Cc1ccc(O)c(Cc2nc3ccccc3nc2-c2cccc(Cl)c2)c1`, the GI50 with EKVX is 34.7 µM (inactive); in the test with HCT-15, 15.4 µM; with HOP-62 it was > 100 µM (inactive); in the test on LOX IMVI, 36.8 µM (inactive); in the test on MOLT-4, 17.3 µM (inactive); in the test on Malme-3M, > 100 µM (inactive). The GI50 was 20.3 µM (inactive) with NCI-H522; 44.1 µM (inactive) in the test on NCI/ADR-RES; 10.6 µM (inactive) in the test with OVCAR-4; > 100 µM (inactive) with OVCAR-5; 42 µM (inactive) in the test on PC-3; 22.5 µM (inactive) with RPMI-8226. For the same compound, the GI50 in the test on SF-268 is 97.5 µM (inactive); with SF-295, > 100 µM (inactive); in the test on SK-MEL-2, 46.3 µM (inactive); in the test with SNB-19 it was 21 µM (inactive); in the test on TK-10, 88.9 µM (inactive); in the test on U-251 it was 35.4 µM (inactive).
For `COc1ccc(/N=C(/C[S+]([O-])c2ccc(C)cc2)C(F)(F)F)cc1` (stereo unspecified), the GI50 in the test with EKVX is > 100 µM (inactive); in the test on HCT-15, > 100 µM; in the test with LOX IMVI it was > 100 µM (inactive); with MOLT-4 it was 53.3 µM (inactive); in the test with Malme-3M, > 100 µM (inactive); in the test with NCI-H522, > 100 µM (inactive). Also, the GI50 in the test on NCI/ADR-RES is > 100 µM (inactive); in the test with OVCAR-4, 59.7 µM (inactive); in the test on OVCAR-5, > 100 µM (inactive); in the test on PC-3 it was 26.5 µM (inactive); in the test with SF-295 it was 56.2 µM (inactive); in the test on SK-MEL-2 it was 50.2 µM (inactive). Further, the GI50 was 71.8 µM (inactive) with SNB-19, > 100 µM (inactive) with SNB-75, > 100 µM (inactive) in the test with TK-10 and > 100 µM (inactive) with U-251.
For `CC1(C)C=Cc2c(cc(O)c3c(=O)c4cc(Cl)ccc4[nH]c23)O1`, the GI50 with EKVX was 0.469 µM (active); with HCT-15 it was 3.27 µM; with HOP-62, 4.08 µM (inactive); with LOX IMVI, 3.29 µM (inactive); with MOLT-4, 2.54 µM (inactive); in the test on Malme-3M, 2.24 µM (inactive). Further, the GI50 in the test with NCI-H522 was 3.29 µM (inactive); in the test on NCI/ADR-RES, 1.68 µM (inactive); with OVCAR-4, 3.24 µM (inactive); with OVCAR-5, 1.91 µM (inactive); with PC-3, 2.04 µM (inactive); in the test with RPMI-8226, 2.29 µM (inactive). Further, the GI50 was 3.86 µM (inactive) in the test with SF-268; 2.84 µM (inactive) in the test on SF-295; 2.69 µM (inactive) in the test on SK-MEL-2; 2.62 µM (inactive) in the test with SNB-19; 4.03 µM (inactive) in the test on SNB-75; 4.5 µM (inactive) with TK-10. Besides, the GI50 in the test on U-251 is 2.74 µM (inactive).
`CCN1CCC(O)(c2ccc(Oc3ccc(F)cc3)cc2)C(C(=O)c2ccc(Oc3ccc(F)cc3)cc2)C1` (stereo unspecified): the GI50 was 16.6 µM (inactive) in the test with EKVX; 11.5 µM in the test on HCT-15; 15.8 µM (inactive) with HOP-62; 11.8 µM (inactive) in the test on LOX IMVI; 14 µM (inactive) in the test with MOLT-4; 15.4 µM (inactive) in the test with Malme-3M. The GI50 with NCI/ADR-RES is 10.3 µM (inactive); in the test with OVCAR-4, 15 µM (inactive); in the test with OVCAR-5, 15 µM (inactive); with PC-3, 13.4 µM (inactive); with RPMI-8226, 2.79 µM (inactive); with SF-268, 16.9 µM (inactive). Moreover, the GI50 is 15.7 µM (inactive) with SF-295; 17.2 µM (inactive) with SK-MEL-2; 15.8 µM (inactive) in the test on SNB-19; 15.5 µM (inactive) with SNB-75; 11 µM (inactive) in the test with TK-10; 16.2 µM (inactive) with U-251.
As to `CC(=O)OCC(OC(C)=O)C(OC(C)=O)C(OC(C)=O)C(/C=N\Nc1nc2ccccc2c(=O)[nH]1)=N/Nc1nc2ccccc2c(=O)[nH]1` (stereo unspecified), the GI50 with EKVX is > 100 µM (inactive); in the test on HCT-15, > 100 µM; with HOP-62 it was > 100 µM (inactive); in the test with LOX IMVI it was > 100 µM (inactive); with MOLT-4 it was > 100 µM (inactive); in the test on Malme-3M it was > 100 µM (inactive). Moreover, the GI50 in the test on NCI-H522, in the test with NCI/ADR-RES, in the test with OVCAR-5, in the test with PC-3, with RPMI-8226 and with SF-268 was > 100 µM (inactive) each time. For the same compound, the GI50 in the test with SF-295, with SK-MEL-2, with SNB-19, in the test with SNB-75 and in the test with U-251 was > 100 µM (inactive) in each case.
For `Cc1cccc2nc3cccc(C(=O)NCCC[N+](C)(CCCNC(=O)c4cccc5nc6cccc(C)c6nc45)Cc4ccc([N+](=O)[O-])n4C)c3nc12`, the GI50 is 2.1 µM (inactive) in the test on EKVX; 2.4 µM with HCT-15; 0.809 µM (active) with HOP-62; 0.871 µM (active) in the test on LOX IMVI; 0.377 µM (active) in the test with MOLT-4; 35.9 µM (inactive) in the test on Malme-3M. For the same compound, the GI50 in the test with NCI-H522 was 4.13 µM (inactive); in the test on NCI/ADR-RES it was > 32.3 µM (inactive); with OVCAR-4 it was 27.3 µM (inactive); in the test with OVCAR-5 it was 6.68 µM (inactive); with PC-3 it was 1.83 µM (inactive); in the test with RPMI-8226 it was 1.33 µM (inactive). Besides, the GI50 in the test with SF-295 was 5.66 µM (inactive); with SK-MEL-2 it was 8.32 µM (inactive); with SNB-19 it was 13.1 µM (inactive); in the test on SNB-75, > 100 µM (inactive); in the test on TK-10, > 100 µM (inactive); with U-251, 0.456 µM (active).
Consider `N#CC(NC12CC3CC(CC(C3)C1)C2)c1ccccc1` (stereo unspecified), for which the GI50 is > 100 µM (inactive) in the test with EKVX; > 100 µM in the test with HCT-15; > 100 µM (inactive) with HOP-62; > 100 µM (inactive) in the test on LOX IMVI; > 100 µM (inactive) with MOLT-4; > 100 µM (inactive) in the test on Malme-3M. For the same compound, the GI50 in the test with NCI-H522, with NCI/ADR-RES, with OVCAR-4, in the test with OVCAR-5, in the test on PC-3 and with RPMI-8226 was > 100 µM (inactive) each time. For the same compound, the GI50 in the test with SF-268, in the test on SF-295, in the test with SK-MEL-2, with SNB-19, in the test with SNB-75 and in the test on TK-10 was > 100 µM (inactive) in each case. For the same compound, the GI50 with U-251 is > 100 µM (inactive).
With `CC(=O)Oc1ccccc1C(=O)O` [ASPIRIN], the GI50 in the test with EKVX was > 100 µM (inactive); in the test on HCT-15, > 100 µM; in the test with HOP-62, > 100 µM (inactive); in the test on LOX IMVI, > 100 µM (inactive); in the test on MOLT-4 it was > 100 µM (inactive); in the test on Malme-3M, > 100 µM (inactive). The GI50 in the test on NCI-H522, with NCI/ADR-RES, in the test with OVCAR-4, in the test on OVCAR-5, in the test with PC-3 and with RPMI-8226 was > 100 µM (inactive) throughout. Also, the GI50 with SF-268, with SF-295, with SK-MEL-2, in the test on SNB-19, in the test on SNB-75 and in the test with TK-10 was > 100 µM (inactive) throughout. Further, the GI50 in the test with U-251 is > 100 µM (inactive).
`CC1=NN(c2nc(N)nc(CSc3nc4n(c(=S)n3)CCN4)n2)C(C)(C)C1`: the GI50 is 39.7 µM (inactive) in the test on A498; 27.4 µM (inactive) with EKVX; 32 µM in the test on HCT-15; 14 µM (inactive) in the test on HOP-62; 43.6 µM (inactive) with LOX IMVI; > 100 µM (inactive) in the test on MOLT-4. The GI50 was 30.1 µM (inactive) in the test with NCI/ADR-RES; > 100 µM (inactive) in the test with OVCAR-4; 30.1 µM (inactive) with PC-3; > 100 µM (inactive) in the test on RPMI-8226; 15.3 µM (inactive) in the test with SF-268; 22.9 µM (inactive) in the test with SF-295. The GI50 in the test on SK-MEL-2 was 16.8 µM (inactive); with SNB-19, 37.9 µM (inactive); in the test on SNB-75, 15.3 µM (inactive); in the test with TK-10, 74.1 µM (inactive); in the test with U-251, 37.9 µM (inactive).
